In US20100029682A1, “NOVEL CHROMENE AND THIOCHROMENE CARBOXAMIDE DERIVATIVES, METHODS FOR PREPARING SAME AND THERAPEUTIC APPLICATIONS OF SAME” (priority 2006, published 2010):

Key:
[1] = molecular target: T1, human recombinant DRD3 (Homo sapiens, UniProt P35462); assay: intrinsic activity on cells expressing human recombinant DRD3; format: cell-based; conditions: antagonists <0.10, partial agonists 0.2-0.6, full agonists >0.8
T1 construct: expressed in transfected cells
Source text: As used above, the term “D3 receptor partial agonist” denotes a compound that forms a complex with DRD3 and that acts as a combined agonist-antagonist, i.e., it induces a physiological response whose intensity is less than that of the natural mediator, dopamine. In vitro, in a cell expressing DRD3, a DRD3 partial agonist produced an active response whose maximum intensity was lower than that produced by dopamine or a by a full agonist, for example quinpirole[(4aR-trans)-4,4a,5,6,7,8,8a,9 octahydro-5-propyl-1H (or 2H)-pyrazolo(3,4-g)quinoline]. A DRD3 partial agonist can also partially prevent the response produced by dopamine or by its full agonists. In vivo, a DRD3 partial agonist produces dopaminergic responses, particularly when dopamine levels are lowered, as is the case with rats with lesions caused by 6-hydroxydopamine or monkeys injected with 1 methyl-4-phenyl-1,2,3,6-tetrahydropyridine (MPTP). Moreover, a DRD3 partial agonist can act as an antagonist in vivo, particularly when DRD3 is subject to sustained dopamine stimulation.
(§1) The activity of derivatives of formula 1 as DRD3 ligands, modulators of the activity of DRD3 according to the invention, was evaluated on cells expressing human recombinant DRD3. […] These same compounds show an apparent affinity for the dopamine D2 receptor that is 100 to 500 times weaker. These same compounds have an affinity for the α1 adrenergic receptor that is 20 to 500 times weaker than that for the D3 receptor. The compounds of formula 1 are either antagonists (intrinsic activity<0.10), partial agonists (0.2<intrinsic activity<0.6) or full agonists (intrinsic activity>0.8). The biological results relative to certain compounds of formula 1 are presented in table 2 at the end of the description.

[2] = molecular target: T2, dopamine D2 receptor (Homo sapiens, UniProt P14416); assay: inhibition of spiperone[3H] binding in CHO cells, dopamine D2 receptor; conditions: read-out: pKi D2 (converted)
T2 construct: expressed in transfected cells
Method: as §1

[3] = molecular target: α1-adrenergic receptor; assay: inhibition of prazocine[3H] binding in rat brain tissue
Method: as §1

[4] = molecular target: T3, dopamine D3 receptor (Homo sapiens, UniProt P35462); assay: inhibition of spiperone[3H] binding in CHO cells, dopamine D3 receptor; conditions: read-out: pKi D3 (converted)
T3 construct: expressed in transfected cells
Method: as §1

T3 sequence (P35462 whole entry): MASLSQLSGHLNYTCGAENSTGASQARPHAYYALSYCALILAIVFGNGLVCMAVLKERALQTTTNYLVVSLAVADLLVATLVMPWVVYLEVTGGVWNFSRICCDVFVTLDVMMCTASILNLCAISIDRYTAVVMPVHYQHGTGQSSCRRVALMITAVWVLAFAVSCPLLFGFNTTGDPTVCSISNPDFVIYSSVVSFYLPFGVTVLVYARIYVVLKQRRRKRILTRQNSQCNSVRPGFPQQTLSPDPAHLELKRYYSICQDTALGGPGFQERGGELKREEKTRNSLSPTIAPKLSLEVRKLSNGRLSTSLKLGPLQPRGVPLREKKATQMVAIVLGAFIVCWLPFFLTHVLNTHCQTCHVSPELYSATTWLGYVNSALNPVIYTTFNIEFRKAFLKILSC
T1 sequence (P35462 whole entry): as above
T2 sequence (P14416 whole entry, species assumed): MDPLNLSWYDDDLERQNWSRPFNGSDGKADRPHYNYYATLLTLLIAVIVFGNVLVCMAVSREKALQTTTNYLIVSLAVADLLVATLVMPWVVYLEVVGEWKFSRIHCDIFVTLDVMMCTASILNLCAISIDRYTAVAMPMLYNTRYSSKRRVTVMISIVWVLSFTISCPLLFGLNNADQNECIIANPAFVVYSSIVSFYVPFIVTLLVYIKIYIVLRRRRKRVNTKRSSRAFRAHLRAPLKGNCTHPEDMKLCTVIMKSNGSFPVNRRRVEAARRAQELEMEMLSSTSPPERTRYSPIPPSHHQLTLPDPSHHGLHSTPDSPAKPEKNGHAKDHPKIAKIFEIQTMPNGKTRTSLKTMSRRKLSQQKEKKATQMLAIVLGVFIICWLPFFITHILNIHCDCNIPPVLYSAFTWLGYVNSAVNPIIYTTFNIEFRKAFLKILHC

Structure (SMILES) | Intrinsic activity [1] | Ki [2] [nM] | pKi α1 [3] | Ki [4] [nM]
N#Cc1cccc(N2CCN(CCCCNC(=O)C3=Cc4ccccc4SC3)CC2)c1 [Example 35, 2H-Thiochromene-3-carboxylic acid {4-[4-(3-cyanophenyl)-piperazin-1-yl]-butyl}-amide] | 0.18 | 3160 | 7.32 | 2.4
O=C(NCCCCN1CCN(c2cccc(O)c2)CC1)C1=Cc2ccccc2SC1 [Example 41, 2H-Thiochromene-3-carboxylic acid {4-[4-(3-hydroxyphenyl)-piperazin-1-yl]-butyl}-amide] | 0.64 | 3800 | 7.08 | 0.661
CS(=O)(=O)Nc1cccc(N2CCN(CCCCNC(=O)C3=Cc4cc(Cl)ccc4OC3)CC2)c1 [Example 89, 6-chloro-2H-chromene-3-carboxylic acid {4-[4-(3-mesylamino-phenyl}-piperazin-1-yl]-butyl}-amide] | 0 | 34.7 | 6.78 | 0.219
O=C(NCCCCN1CCN(c2cccc3[nH]ccc23)CC1)C1=Cc2ccccc2OC1 [Example 102, 2H-chromene-3-carboxylic acid {4-[4-(1H-indol-4-yl)-piperazin-1-yl]-butyl}-amide] | 0.59 | 93.3 | 8.05 | 0.219
O=C(NCCCCN1CCN(c2cccc3[nH]c(=O)oc23)CC1)C1=Cc2ccccc2OC1 [Example 110, 2H-chromene-3-carboxylic acid {4-[4-(2-oxo-2,3-dihydro-benzoxazol-7-yl)-piperazin-1-yl]-butyl}-amide] | 0.81 | 7.59 | 8.44 | 0.0676
O=C(NCCCCN1CCN(c2cccc3c2OCC3)CC1)C1=Cc2ccccc2OC1 [Example 111, 2H-chromene-3-carboxylic acid {4-[4-(2,3-dihydro-benzofuran-7-yl)-piperazin-1-yl]-butyl} amide] | 0.26 | 141 | 7.84 | 0.676
